Where a SMILES comes first, the peptide text is derived from it. [ ]: non-standard residue; d: D form. The star is where a group is joined. Propanoyl(3-(1-naphthyl)) = O=C(CCc1cccc2ccccc12)*; Propanoyl(3-indol-3-yl) = O=C(CCc1c[nH]c2ccccc12)*; d2Nal = N[C@H](Cc1ccc2ccccc2c1)C(=O)O
System: plasma LH levels
Assay: Plasma LH level during and after i.v. infusion (Figures 1 and 2)
Type: in vivo
Settings: mature castrate male rats, plot only, compound characterised in words
Source text: Figures 1 and 2 illustrate the effect on plasma LH levels in mature castrate male rats during and after i.v. infusion of compounds 20 and 24, respectively.

| Compound | effect on plasma LH levels |
| --- | --- |
| CCNC(=O)[C@@H]1CCCN1C(=O)[C@H](CCCNC(=N)N)NC(=O)[C@H](CC(C)C)NC(=O)[C@@H](Cc1ccc2ccccc2c1)NC(=O)[C@H](Cc1ccc(O)cc1)NC(=O)[C@H](CO)NC(=O)CCc1cccc2ccccc12 [compound 20] ({Propanoyl(3-(1-naphthyl))}-SY[d2Nal]LRP-NHEt) | LHRH antagonist |
| CCNC(=O)[C@@H]1CCCN1C(=O)[C@H](CCCNC(=N)N)NC(=O)[C@H](CC(C)C)NC(=O)[C@@H](Cc1c[nH]c2ccccc12)NC(=O)[C@H](Cc1ccc(O)cc1)NC(=O)[C@H](CO)NC(=O)CCc1c[nH]c2ccccc12 [compound 24, (4-9)[N-(3-(3-Indole)propionyl)-Ser⁴-D-Trp⁶-Pro⁹-NHEt] LHRH] ({Propanoyl(3-indol-3-yl)}-SY[dW]LRP-NHEt) | LHRH agonist |
